23 compounds from patent US11753411B2, “Substituted pyrazolo[1,5-a]pyrimidines as TYK2 pseudokinase ligands” (Ventyx Biosciences, Inc., priority 2019, dated 2023) can be followed below.

For this assay, the system named is IFN-a/Jak1 Tyk2. The experiment in a line: Co-stimulation assay in lysed whole blood: IFNa (JAK1/TYK2) stimulated STAT1 phosphorylation. The assay is classed as cell-based. To be noted: Homo sapiens, 20 min, 100 ng/mL IFNa (with 10 ng/mL GM-CSF), pSTAT by flow cytometry. The protocol: Example 12: Co-Stimulation Assay in Lysed Whole Blood; JAK2: GM-CSF Stimulated STAT5 Phosphorylation and JAK1/TYK2 Stimulated STAT1 Phosphorylation Assay
Human Blood Lysis Using Abcam's RBC Lysis Buffer
Dilute RBC lysis buffer to 1× in distilled water. Add 2 mL blood to 38 mL of 1×RBC-lysis buffer. Incubate for 15 mins at RT, in dark. Spin at 300 g, 5 mins, to collect the pellet. Re-lyse if necessary. Re-suspend pellet in 5 mL of cRPMI.
Compound and Cytokine Treatment
Aliquot 80 μL of lysed human blood in to wells of 96 deep-well plate. Add 10 μl of (10× conc.) of different concentrations of compounds to all wells except controls (unstained and unstimulated) and mix it with the help of 100 uL multichannel. Add 10 uL of RPMI media in controls. For dilution of compounds and dilution range please refer Appendix. Incubate on water bath or CO2 incubator for 1 hour at 37° C. Add 10 μl of (10× conc.) of cytokine mix (GM-CSF and IFNa) (final conc.10 ng/mL of GM-CSF and 100 ng/mL of IFNa) to each well except unstimulated and unstained controls and incubate further for 20 minutes on water bath at 37° C.
Add 900 μL of prewarmed 1× Fix/Lyse solution (Appendix) and mix it properly using 1000 μl multichannel, incubate further on water bath at 37° C. for 10 minutes (which includes time of addition). Centrifuge at 800×g for 5 minutes at 40° C.; remove 900 uL of supernatant and add 900 μL of 1×PBS. Centrifuge at 800×g for 5 minutes at 40° C., remove 900 μL of supernatant. Wash one more time with 900 μL of PBS (optional) and resuspend pellets in 100 uL of PBS.
Disrupt the pellet by gentle tapping and resuspend in 1000 μL of BD Phosflow Perm Buffer III and incubate plate on ice for 30 minutes. Centrifuge plate at 800×g for 5 minutes at 40° C. Wash two more times with 1000 μL of BD Pharmingen Stain Buffer.
Disrupt the pellet by gentle tapping. Resuspend pellets in 100 uL of Stain Buffer and add 5 μL of pSTAT5_AF488 Ab and 5 uL of pSTAT_PE in all wells except unstained control and mix properly using 200 μl multichannel, incubate overnight at […]. Add 900 μL of wash buffer and centrifuge at 1800 rpm for 3 minutes at 40° C. Wash one more time with 1000 μL of BD Pharmingen Stain Buffer. Finally resuspend the pellet in 300 uL of BD Pharmingen Stain Buffer. Transfer the cells to 96-well v-bottom plate and acquire the cells in Beckman Coulter CytExpert. Acquiring cells in Flow Cytometer: Keep the threshold value to 250 and cell concentration should not exceed 100-500 cells/μL. Acquire at least 5,000-10,000 cells.
RPMI 1640 Complete Medium: RPMI 1640 media+10% FBS.
Cytokine dilution: 1) GM-CSF Stock at 100 ug/mL. Prepare an intermediate dilution of 1 ug/mL by adding 2 uL of stock into 198 uL of cRPMI. Further dilute to 100 ng/mL by adding 100 uL of the intermediate stock to 900 uL of cRPMI. 2) IFNa Stock at 200 ug/mL. Dilute IFNa stock 1:200 by adding 5 uL of stock into the 1000 uL of 100 ng/mL GM-CSF working stock as above to give a combined working stock of 1000 ng/mL of IFNa and 100 ng/mL GM-CSF (10×). Keep it on ice until used.
Lyse/Fix buffer preparation: Dilute 5× Lyse/Fix buffer to 1× using MQ water and keep at 37° C. until used.
BD Phosflow perm buffer III: Keep on ice/fridge.
In general terms: Flow cytometry measures light scatter and fluorescence of single cells or particles in a stream.

Usually IC50 stands for the midpoint of a concentration-inhibition curve. Higher therefore signals a need for much substance. Take `CNC(=O)Nc1cnn2c(NC)cc(Nc3c(C)cccc3OC)nc12` [Compound 66, 1-(5-((2-methoxy-6-methylphenyl)amino)-7-(methylamino)pyrazolo[1,5-a]pyrimidin-3-yl)-3-methylurea]: the concentration for half-maximal inhibition (IC50) was in the range of 1000 to 10000 nM.
The result for `CNC(=O)Nc1cnn2c(NC)cc(Nc3cc(Cl)cc4c3OCCO4)nc12` [Compound 77, 1-(5-((7-chloro-2,3-dihydrobenzo[b][1,4]dioxin-5-yl)amino)-7-(methylamino)pyrazolo[1,5-a]pyrimidin-3-yl)-3-methylurea] reads under 1000 nM.
To `CNC(=O)Nc1cnn2c(NC)cc(Nc3cc(C4CC4)cc4c3OCCO4)nc12` [Compound 96, 1-(5-((7-cyclopropyl-2,3-dihydrobenzo[b][1,4]dioxin-5-yl)amino)-7-(methylamino)pyrazolo[1,5-a]pyrimidin-3-yl)-3-methylurea] belongs under 1000 nM.
The result for `CNc1cc(Nc2cc(F)cc3c2OCCO3)nc2c(NC(=O)NCC3(C#N)CC3)cnn12` [Compound 180, 1-((1-cyanocyclopropyl)methyl)-3-(5-((7-fluoro-2,3-dihydrobenzo[b][1,4]dioxin-5-yl)amino)-7-(methylamino)pyrazolo[1,5-a]pyrimidin-3-yl)urea] reads at least 10000 nM; that for `CNC(=O)Nc1cnn2c(NC)cc(Nc3ccc4c(c3)OCCO4)nc12` [Compound 107, 1-(5-((2,3-dihydrobenzo[b][1,4]dioxin-6-yl)amino)-7-(methylamino)pyrazolo[1,5-a]pyrimidin-3-yl)-3-methylurea], 1000 to 10000 nM; that for `CNc1cc(Nc2cccc3c2OCCO3)nc2c(NC(=O)NCC#N)cnn12` [Compound 102, 1-(cyanomethyl)-3-(5-((2,3-dihydrobenzo[b][1,4]dioxin-5-yl)amino)-7-(methylamino)pyrazolo[1,5-a]pyrimidin-3-yl)urea], under 1000 nM.
With `CNc1cc(Nc2cc(F)cc3c2OCCO3)nc2c(NC(=O)N[C@@H]3C[C@@H]3C#N)cnn12` [Compound 51, 1-((1R,2S)-2-cyanocyclopropyl)-3-(5-((7-fluoro-2,3-dihydrobenzo[b][1,4]dioxin-5-yl)amino)-7-(methylamino)pyrazolo[1,5-a]pyrimidin-3-yl)urea], the 50% inhibitory concentration (IC50) was under 1000 nM.
To `CNC(=O)Nc1cnn2c(NC)cc(Nc3cncc4ccccc34)nc12` [Compound 91, 1-(5-(isoquinolin-4-ylamino)-7-(methylamino)pyrazolo[1,5-a]pyrimidin-3-yl)-3-methylurea] belongs 1000 to 10000 nM; to `CNc1cc(Nc2cccc3c2OCCO3)nc2c(NC(=O)NC3CS(=O)(=O)C3)cnn12` [Compound 125, 1-(5-((2,3-dihydrobenzo[b][1,4]dioxin-5-yl)amino)-7-(methylamino)pyrazolo[1,5-a]pyrimidin-3-yl)-3-(1,1-dioxidothietan-3-yl)urea], 1000 to 10000 nM.
The result for `CNc1cc(-c2cn(C3CCOCC3)c3ncccc23)nc2c(NC(=O)NCC#N)cnn12` [Compound 137, 1-(cyanomethyl)-3-(7-(methylamino)-5-(1-(tetrahydro-2H-pyran-4-yl)-1H-pyrrolo[2,3-b]pyridin-3-yl)pyrazolo[1,5-a]pyrimidin-3-yl)urea] reads under 1000 nM; that for `CNc1cc(Nc2cc(F)cc3c2OCCO3)nc2c(NC(=O)NC3CCC3C#N)cnn12` (centres unmarked) [Compound 46, 1-(2-cyanocyclobutyl)-3-(5-((7-fluoro-2,3-dihydrobenzo[b][1,4]dioxin-5-yl)amino)-7-(methylamino)pyrazolo[1,5-a]pyrimidin-3-yl)urea], 1000 to 10000 nM.
To `[2H]C([2H])([2H])Nc1cc(-c2cn(C3CCOCC3)c3ncccc23)nc2c(NC(=O)NC)cnn12` [Compound 73, 1-methyl-3-(7-((methyl-d3)amino)-5-(1-(tetrahydro-2H-pyran-4-yl)-1H-pyrrolo[2,3-b]pyridin-3-yl)pyrazolo[1,5-a]pyrimidin-3-yl)urea] belongs under 1000 nM; to `CNc1cc(Nc2cccc3c2OCCO3)nc2c(NC(=O)NC3CC(F)(F)C3)cnn12` [Compound 34, 1-(3,3-difluorocyclobutyl)-3-(5-((2,3-dihydrobenzo[b][1,4]dioxin-5-yl)amino)-7-(methylamino)pyrazolo[1,5-a]pyrimidin-3-yl)urea], 1000 to 10000 nM; to `CNc1cc(Nc2cccc3c2OCCO3)nc2c(NC(N)=O)cnn12` [Compound 10, 1-(5-((2,3-dihydrobenzo[b][1,4]dioxin-5-yl)amino)-7-(methylamino)pyrazolo[1,5-a]pyrimidin-3-yl)urea], under 1000 nM.
The compound `CNc1cc2nc3c(cnn13)NC(=O)NCCc1cccc(c1)N2` [Compound 25, (1^3E,1^4E)-1^7-(methylamino)-2,6,8-triaza-1(5,3)-pyrazolo[1,5-a]pyrimidina-3(1,3)-benzenacyclooctaphan-7-one] gave an IC50 of under 1000 nM.
The result for `CNc1cc(Nc2cc(F)cc3c2OCCO3)nc2c(NC(=O)N[C@H]3C[C@H]3F)cnn12` [Compound 42, 1-(5-((7-fluoro-2,3-dihydrobenzo[b][1,4]dioxin-5-yl)amino)-7-(methylamino)pyrazolo[1,5-a]pyrimidin-3-yl)-3-((1S,2R)-2-fluorocyclopropyl)urea] reads under 1000 nM; that for `CNc1cc(Nc2cccnc2OC(F)F)nc2c(NC(=O)N[C@@H]3C[C@@H]3F)cnn12` [Compound 171, 1-(5-((2-(difluoromethoxy)pyridin-3-yl)amino)-7-(methylamino)pyrazolo[1,5-a]pyrimidin-3-yl)-3-((1R,2S)-2-fluorocyclopropyl)urea], 1000 to 10000 nM.
Compound `CNC(=O)Nc1cnn2c(NC)cc(Nc3cccc(OC)c3OC)nc12` [Compound 97, 1-(5-((2,3-dimethoxyphenyl)amino)-7-(methylamino)pyrazolo[1,5-a]pyrimidin-3-yl)-3-methylurea] came in with a 50% inhibitory concentration (IC50) of 1000 to 10000 nM.
The result for `CNc1cc(Nc2cccc3c2OCCO3)nc2c(NC(=O)NC(C)C#N)cnn12` (centres unmarked) [Compound 119, 1-(1-cyanoethyl)-3-(5-((2,3-dihydrobenzo[b][1,4]dioxin-5-yl)amino)-7-(methylamino)pyrazolo[1,5-a]pyrimidin-3-yl)urea] reads under 1000 nM; that for `CNc1cc(Nc2cccc3c2OCCO3)nc2c(NC(=O)NC3CC(C#N)C3)cnn12` (centres unmarked) [Compound 27, 1-(3-cyanocyclobutyl)-3-(5-((2,3-dihydrobenzo[b][1,4]dioxin-5-yl)amino)-7-(methylamino)pyrazolo[1,5-a]pyrimidin-3-yl)urea], under 1000 nM; that for `C#CCNC(=O)Nc1cnn2c(NC)cc(Nc3c(F)ccc4c3OCCO4)nc12` [Compound 135, 1-(5-((6-fluoro-2,3-dihydrobenzo[b][1,4]dioxin-5-yl)amino)-7-(methylamino)pyrazolo[1,5-a]pyrimidin-3-yl)-3-(prop-2-yn-1-yl)urea], 1000 to 10000 nM.
To `[2H]C([2H])([2H])Nc1cc(Nc2cccc3c2OCCO3)nc2c(NC(=O)N[C@@H]3C[C@@H]3F)cnn12` [Compound 40, 1-(5-((2,3-dihydrobenzo[b][1,4]dioxin-5-yl)amino)-7-((methyl-d3)amino)pyrazolo[1,5-a]pyrimidin-3-yl)-3-((1R,2S)-2-fluorocyclopropyl)urea] belongs under 1000 nM.
The result for `CNc1cc(Nc2cc(F)cc3c2OC[C@H](CO)O3)nc2c(NC(=O)N[C@@H]3C[C@@H]3F)cnn12` [Compound 185, 1-(5-(((S)-7-fluoro-2-(hydroxymethyl)-2,3-dihydrobenzo[b][1,4]dioxin-5-yl)amino)-7-(methylamino)pyrazolo[1,5-a]pyrimidin-3-yl)-3-((1R,2S)-2-fluorocyclopropyl)urea] reads 1000 to 10000 nM.
